Experimental data from patent publication US20190308962A1, “FXR (NR1H4) Modulating Compounds” (GILEAD SCIENCES, INC., priority 2016, published 2019).

How the values were obtained:
[1] = molecular target: T1, human FXR alpha ligand binding domain (Homo sapiens, UniProt Q96RI1); assay: FRET activity assay (ligand mediated cofactor peptide interaction, LANCE); type: biochemical; conditions: GST-FXR-LBD / biotinylated SRC-1 peptide (676-700)
T1 construct: made in house; host or cells: E. coli BL21(DE3), vector pDEST15
T1 sequence (Q96RI1 187-472 isoform Q96RI1-2): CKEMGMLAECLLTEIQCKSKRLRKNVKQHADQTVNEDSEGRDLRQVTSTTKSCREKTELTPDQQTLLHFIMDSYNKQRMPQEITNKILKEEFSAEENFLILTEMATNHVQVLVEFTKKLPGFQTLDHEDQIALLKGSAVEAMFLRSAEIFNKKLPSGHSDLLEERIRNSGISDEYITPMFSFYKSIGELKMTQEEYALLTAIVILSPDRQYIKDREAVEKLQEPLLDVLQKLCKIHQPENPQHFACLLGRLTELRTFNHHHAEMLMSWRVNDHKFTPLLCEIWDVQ
Protocol: Determination of a ligand mediated cofactor peptide interaction to quantify ligand binding to the nuclear receptor FXR was performed as follows.
Preparation of human FXR alpha ligand binding domain: The human FXRalpha LBD was expressed in E. coli strain BL21(DE3) as an N-terminally GST tagged fusion protein. The DNA encoding the FXR ligand binding domain was cloned into vector pDEST15 (Invitrogen). Expression was under control of an IPTG inducible T7 promoter. The amino acid boundaries of the ligand binding domain were amino acids 187-472 of Database entry NM_005123 (RefSeq). Expression and purification of the FXR-LBD: An overnight preculture of a transformed E. coli strain was diluted 1:20 in LB-Ampicillin medium and grown at 30° C. to an optical density of OD600=0.4-0.6. Gene expression was then induced by addition of 0.5 mM IPTG. Cells were incubated an additional 6 h at 30° C., 180 rpm. Cells were collected by centrifugation (7000×g, 7 min, rt). Per liter of original cell culture, cells were resuspended in 10 mL lysis buffer (50 mM Glucose, 50 mM Tris pH 7.9, 1 mM EDTA and 4 mg/mL lysozyme) and left on ice for 30 min. Cells were then subjected to sonication and cell debris removed via centrifugation (22000×g, 30 min, 4° C.). Per 10 mL of supernatant 0.5 mL prewashed Glutathione 4B sepharose slurry (Qiagen) was added and the suspension kept slowly rotating for 1 h at 4° C. Glutathione 4B sepharose beads were pelleted by centrifugation (2000×g, 15 sec, 4° C.) and washed twice in wash buffer (25 mM Tris, 50 mM KCl, 4 mM MgCl2 and 1M NaCl). The pellet was resuspended in 3 mL elution buffer per liter of original culture (elution buffer: 20 mM Tris, 60 mM KCl, 5 mM MgCl2 and 80 mM glutathione added immediately prior to use as powder). The suspension was left rotating for 15 min at 4° C., the beads pelleted and eluted again with half the volume of elution buffer than the first time. The eluates were pooled and dialysed overnight in 20 mM Hepes buffer (pH 7.5) containing 60 mM KCl, 5 mM MgCl2 as well as 1 mM dithiothreitol and 10% (v/v) glycerol. The protein was analysed by SDS-Page.
The method measures the ability of putative ligands to modulate the interaction between the purified bacterial expressed FXR ligand binding domain (LBD) and a synthetic biotinylated peptide based on residues 676-700 of SRC-1 (LCD2, 676-700). The sequence of the peptide used was B-[…]-COOH (SEQ ID NO: 1) where the N-terminus was biotinylated (B). The ligand binding domain (LBD) of FXR was expressed as fusion protein with GST in BL-21 cells using the vector pDEST15. Cells were lysed by sonication, and the fusion proteins purified over glutathione sepharose (Pharmacia) according to the manufacturers instructions. For screening of compounds for their influence on the FXR-peptide interaction, the Perkin Elmer LANCE technology was applied. This method relies on the binding dependent energy transfer from a donor to an acceptor fluorophor attached to the binding partner of interest. For ease of handling and reduction of background from compound fluorescence LANCE technology makes use of generic fluorophore labels and time resolved detection Assays were done in a final volume of 25 μL in a 384 well plate, in a Tris-based buffer (20 mM Tris-HCl pH 7.5; 60 mM KCl, 5 mM MgCl2; 35 ng/μL BSA), containing 20-60 ng/well recombinantly expressed FXR-LBD fused to GST, 200-600 nM N-terminally biotinylated peptide, representing SRC1 aminoacids 676-700, 200 ng/well Streptavidin-xlAPC conjugate (Prozyme) and 6-10 ng/well Eu W1024-antiGST (Perkin Elmer). DMSO content of the samples was kept at 1%. After generation of the assay mix and diluting the potentially FXR modulating ligands, the assay was equilibrated for 1 h in the dark at rt in FIA-plates black 384 well (Greiner). The LANCE signal was detected by a Perkin Elmer VICTOR2V™ Multilabel Counter. The results were visualized by plotting the ratio between the emitted light at 665 and 615 nm. […]

[2] = molecular target: T2, FXR ligand binding domain (Homo sapiens, UniProt Q96RI1); assay: Mammalian one hybrid (M1H) Gal4 reporter gene assay in HEK293 cells; type: cell-based; conditions: Gal4-FXR-LBD, luciferase reporter, 16 h
T2 construct: expressed in transfected cells; host or cells: HEK293 (DSMZ), transient transfection with pCMV-BD-FXR-LBD, pFR-Luc and pRL-CMV
T2 sequence (Q96RI1 187-472 isoform Q96RI1-2): T1 sequence (Q96RI1 187-472 isoform Q96RI1-2)
Protocol: Determination of a ligand mediated Gal4 promoter driven transactivation to quantify ligand binding mediated activation of FXR was performed as follows.
The cDNA part encoding the FXR ligand binding domain was cloned into vector pCMV-BD (Stratagene) as a fusion to the yeast GAL4 DNA binding domain under the control of the CMV promoter. The amino acid boundaries of the ligand binding domain were amino acids 187-472 of Database entry NM_005123 (RefSeq). The plasmid pFR-Luc (Stratagene) was used as the reporter plasmid, containing a synthetic promoter with five tandem repeats of the yeast GAL4 binding sites, driving the expression of the Photinus pyralis (American firefly) luciferase gene as the reporter gene. In order to improve experimental accuracy the plasmid pRL-CMV (Promega) was cotransfected. pRL-CMV contains the constitutive CMV promoter, controlling the expression of the Renilla reniformis luciferase. All Gal4 reporter gene assays were done in HEK293 cells (obtained from DSMZ, Braunschweig, Germany) grown in MEM with L-Glutamine and Earle's BSS supplemented with 10% fetal bovine serum, 0.1 mM nonessential amino acids, 1 mM sodium pyruvate, and 100 units Penicilin/[…] per mL at 37° C. in 5% CO2. Medium and supplements were obtained from Invitrogen. For the assay, […] cells were plated per well in 96 well plates in 100 μL per well MEM without Phenol Red and L-Glutamine and with Earle's BSS supplemented with 10% charcoal/dextran treated FBS (HyClone, South Logan, Utah), 0.1 mM nonessential amino acids, 2 mM glutamine, 1 mM sodium pyruvate, and 100 units Penicilin/[…] per mL, incubated at 37° C. in 5% CO2. The following day the cells were >90% confluence. Medium was removed and cells were transiently transfected using 20 μL per well of an OptiMEM-polyethylene-imine-based transfection-reagent (OptiMEM, Invitrogen; Polyethyleneimine, Aldrich Cat No. 40, 827-7) including the three plasmids described above. MEM with the same composition as used for plating cells was added 2-4 h after addition of transfection mixture. Then compound stocks, prediluted in MEM were added (final vehicle concentration not exceeding 0.1%). Cells were incubated for additional 16 h before firefly and renilla luciferase activities were measured sequentially in the same cell extract using a Dual-Light-Luciferase-Assay system (Dyer et al., Anal. Biochem. 2000, 282, 158-161). All experiments were done in triplicates.

[3] = Plasma drug exposure in cynomolgus monkey after oral dosing; type: in vivo
Description: (§1) Each dosing group consisted of three male Cynomolgus monkeys.

FGF19 = assay: In vivo pharmacodynamics in cynomolgus monkey: plasma FGF19 (ELISA); conditions: oral
Description: as §1

Compound	EC50 [1] [nM]	EC50 [2] [nM]	Maximal AUC, compared between the two compounds ([3]; 300 mg/kg)	Plasma exposure with increasing doses ([3]; 3 to 300 mg/kg)	Plasma FGF19 response to increasing doses (FGF19; 3 to 300 mg/kg)	Plasma FGF19 Cmax (FGF19; highest dose (300 mg/kg)) [pg/mL]
O=C(O)c1ccnc(N2CC(O)(c3ccc(OCc4c(-c5ccc(F)cc5F)noc4C4CC4)cc3Cl)C2)c1 [Example 1, 2-(3-(2-chloro-4-((5-cyclopropyl-3-(2,4-difluorophenyl)isoxazol-4-yl)methoxy)phenyl)-3-hydroxyazetidin-1-yl)isonicotinic Acid]	263	3000	–	–	–	–
O=C(O)c1ccnc(N2CC(O)(c3ccc(OCc4c(-c5c(Cl)cc(F)cc5Cl)noc4C4CC4)cc3Cl)C2)c1 [Example 2, 2-(3-(2-chloro-4-((5-cyclopropyl-3-(2,6-dichloro-4-fluorophenyl)isoxazol-4-yl)methoxy)phenyl)-3-hydroxyazetidin-1-yl)isonicotinic Acid]	25	831	–	–	–	–
O=C(O)c1cnc(N2CC(O)(c3ccc(OCc4c(-c5c(Cl)cc(F)cc5Cl)noc4C4CC4)cc3Cl)C2)c(F)c1 [Example 3, 6-(3-(2-chloro-4-((5-cyclopropyl-3-(2,6-dichloro-4-fluorophenyl)isoxazol-4-yl)methoxy)phenyl)-3-hydroxyazetidin-1-yl)-5-fluoronicotinic Acid]	7.4	3.8	comparable	Dose-dependent increases in plasma exposure	dose-dependently increased plasma FGF19	16000
Cc1onc(-c2c(Cl)cc(F)cc2Cl)c1COc1ccc(C2(O)CN(c3ncc(C(=O)O)cc3F)C2)c(Cl)c1 [Example 4, 6-(3-(2-chloro-4-((3-(2,6-dichloro-4-fluorophenyl)-5-methylisoxazol-4-yl)methoxy)phenyl)-3-hydroxyazetidin-1-yl)-5-fluoronicotinic Acid]	35	176	–	–	–	–
O=C(O)c1cnc(N2CC(O)(c3ccc(OCc4c(C5CC5)cnn4-c4c(Cl)cc(F)cc4Cl)cc3Cl)C2)c(F)c1 [Example 5, 6-(3-(2-chloro-4-((4-cyclopropyl-1-(2,6-dichloro-4-fluorophenyl)-1H-pyrazol-5-yl)methoxy)phenyl)-3-hydroxyazetidin-1-yl)-5-fluoronicotinic Acid]	18	8.6	–	–	–	–
COc1ncc(C(=O)O)cc1[C@H]1C[C@](O)(c2ccc(OCc3c(-c4c(Cl)cc(F)cc4Cl)noc3C3CC3)cc2Cl)C1 [Example 6, 5-((1S,3S)-3-(2-chloro-4-((5-cyclopropyl-3-(2,6-dichloro-4-fluorophenyl)isoxazol-4-yl)methoxy)phenyl)-3-hydroxycyclobutyl)-6-methoxynicotinic Acid]	49	353	–	–	–	–
O=C(NCCS(=O)(=O)O)c1cnc(N2CC(O)(c3ccc(OCc4c(-c5c(Cl)cc(F)cc5Cl)noc4C4CC4)cc3Cl)C2)c(F)c1 [Example 7, 2-(6-(3-(2-chloro-4-((5-cyclopropyl-3-(2,6-dichloro-4-fluorophenyl)isoxazol-4-yl)methoxy)phenyl)-3-hydroxyazetidin-1-yl)-5-fluoronicotinamido)ethane-1-sulfonic Acid]	6.9	1700	–	–	–	–
O=C(O)CNC(=O)c1cnc(N2CC(O)(c3ccc(OCc4c(-c5c(Cl)cc(F)cc5Cl)noc4C4CC4)cc3Cl)C2)c(F)c1 [Example 8, (6-(3-(2-chloro-4-((5-cyclopropyl-3-(2,6-dichloro-4-fluorophenyl)isoxazol-4-yl)methoxy)phenyl)-3-hydroxyazetidin-1-yl)-5-fluoronicotinoyl)glycine]	8.1	1260	–	–	–	–
